# Publication PMC6792352, “Limited Chemical Structural Diversity Found to Modulate Thyroid Hormone Receptor in the Tox21 Chemical Library” (Environmental Health Perspectives, 2019)
# Where a name gives a salt, the structure may show the parent alone.
# Test: in vitro
# Settings: rat, gh3-tre-luc cells, AC50 (uM) modified / 1000
row,Compound,CC50 at 24 h [µM]
1,COc1ccc(C(=CC(=O)N2CCOCC2)c2ccc(Cl)cc2)cc1OC [Dimethomorph],> 90
2,CCSC(=O)N(CC)C1CCCCC1 [Cycloate],> 90
3,CCCCCO [1-Pentanol],> 90
4,CCC(C)OC(C)CC (stereo not shown) [Bis(2-butyl) ether],> 100
5,O=P(c1ccccc1)(c1ccccc1)c1ccccc1 [Triphenylphosphine oxide],> 90
6,CC1(C)S[C@@H]2[C@H](NC(=O)C(c3ccccc3)S(=O)(=O)O)C(=O)N2[C@H]1C(=O)O (stereo partly shown) [Sulbenicillin disodium],> 50
7,CCCCCCCCCCCCCC [Tetradecane],> 90
8,CC(C)Cc1ccc([C@H](C)C(=O)O)cc1 [Dexibuprofen],> 50
9,CC(C)CCOCc1ccccc1 [Benzyl 3-methylbutyl ether],> 90
10,CCN(CC)CCOCCOC(=O)C(CC)(CC)c1ccccc1 [Oxeladin citrate],27.1
11,Cc1cnc(C2=NC(=O)C(C)(C(C)C)N2)c(C(=O)O)c1 (stereo not shown) [Imazapic],> 90
12,CC(C)c1ccc2oc3nc(N)c(C(=O)O)cc3c(=O)c2c1 [Amlenanox],> 50
13,CCCCc1cc2c(=O)c(C(=O)OC)c[nH]c2cc1OCc1ccccc1 [Nequinate],> 50
14,O=C(N[C@H]1CN2CCC1CC2)c1ccc2c(c1)OCCO2 [PHA-00568487],> 90
15,O=C(O)CCc1ccccc1 [Hydrocinnamic acid],> 90
16,"O=C(O)[C@@H](S)[C@H](S)C(=O)O [(2R,3R)-2,3-Dimercaptosuccinic acid]",22.8
17,OCCO [Ethylene glycol],> 100
18,CON(C)C(=O)Nc1ccc(Cl)c(Cl)c1 [Linuron],> 90
19,NC(=O)c1ncn([C@@H]2O[C@H](CO)[C@@H](O)[C@H]2O)c1N [Acadesine],> 50
20,O=C(O)c1cc2ccccc2cc1O [3-Hydroxy-2-naphthoic acid],> 90
21,COC(=O)CCCCCCCCC(=O)OC [Dimethyl decanedioate],> 90
22,"CC1(C)CC(N)CC(C)(C)N1 [2,2,6,6-Tetramethylpiperidin-4-amine]",> 90

row,Compound,CC50 at 24 h [µM]
1,O=[N+]([O-])c1cc(C(F)(F)F)c(Cl)c([N+](=O)[O-])c1Nc1ncc(C(F)(F)F)cc1Cl [Fluazinam],4.25
2,C=C[C@H]1C[N@@]2CC[C@H]1C[C@@H]2[C@@H](O)c1ccnc2ccc(OC)cc12 [Quinidine],85.2
3,CCN1CCN(c2cc(-c3ccc(F)cc3)c3c(n2)CCCCCC3)CC1 [Blonanserin],20.1
4,CC(=O)c1cnccn1 [Acetylpyrazine],> 100
5,CCS(=O)(=O)CCn1c([N+](=O)[O-])cnc1C [Tinidazole],> 20
6,C[C@H]1O[C@H](O[C@H]2[C@H](O)[C@@H](O)[C@@H](O[C@@H]([C@H](O)[C@@H](O)C=O)[C@H](O)CO)O[C@@H]2CO)[C@H](O)[C@@H](O)[C@@H]1N[C@H]1C=C(CO)[C@@H](O)[C@H](O)[C@H]1O [Acarbose],> 50
7,COC(=O)[C@]1(C)CCC[C@@]2(C)[C@H]1CC=C1C=C(C(C)C)CC[C@@H]12 [Methyl abietate],42.6
8,CC(C)CO [2-Methyl-1-propanol],> 90
9,N=C(N)N [Guanidine carbonate],> 50
10,O=Nc1ccc(O)cc1 [4-Nitrosophenol],> 90
11,CC(C)(C)OC(=O)c1ccccc1C(=O)O [tert-Butyl hydrogen phthalate],> 90
12,"Clc1ccccc1Cl [1,2-Dichlorobenzene]",> 90
13,O=C(Nc1ccccc1)c1cc(Cl)ccc1O [5-Chlorosalicylanilide],7.85
14,CC1CN(c2cc3c(cc2F)c(=O)c(C(=O)O)cn3-c2ccc(F)cc2F)CCN1 (stereo not shown) [Temafloxacin],> 50
15,C/C=C/c1ccc(O)c(OC)c1 [Isoeugenol],> 90
16,CCCCCCCCCCCCCBr [1-Bromotridecane],> 90
17,C=CCCC(=O)/C=C/C1C(C)=CCCC1(C)C (stereo not shown) [Allyl Ionone],80.7
18,O=CCc1ccccc1 [Phenylacetaldehyde],> 90
19,"CC(C)=CCC/C(C)=C\C#N [(2Z)-3,7-Dimethylocta-2,6-dienenitrile]",> 90
20,CCCCCCCCCCCCCCC(Br)C(=O)O (stereo not shown) [2-Bromohexadecanoic acid],> 90
21,NCc1cccnc1 [3-(Aminomethyl)pyridine],> 90
22,CC(=O)N1C[C@H](O)C[C@H]1C(=O)O [Oxaceprol],> 50

row,Compound,CC50 at 24 h [µM]
1,c1coc(CNc2ncnc3[nH]cnc23)c1 [Kinetin],> 90
2,CC(C)CN(C[C@@H](O)[C@H](Cc1ccccc1)NC(=O)O[C@H]1CCOC1)S(=O)(=O)c1ccc(N)cc1 [Amprenavir],> 50
3,N#Cc1cscn1 [4-Thiazolecarbonitrile],> 90
4,Cc1cc(CC(C)CC(C)(C)C)n(O)c(=O)c1 (stereo not shown) [Piroctone olamine],33
5,OC1CCC(C2CCCCC2)CC1 (stereo not shown) [4-Cyclohexylcyclohexanol],> 90
6,O=C(N/N=C/c1ccccc1O)c1ccncc1 [Salinazid],> 50
7,CCCCC[C@H](O)/C=C/[C@@H]1[C@H]2C/C(=C/CCCC(=O)O)O[C@H]2C[C@H]1O [Epoprostenol sodium],> 50
8,CN(C)CC/C=C1\c2ccccc2CSc2ccccc21 [Dothiepin hydrochloride],6.1
9,OC[C@@H](O)[C@@H](O)CO [Erythritol],> 90
10,CO/N=C(\C(=O)N[C@@H]1C(=O)N2C(C(=O)OCOC(=O)C(C)(C)C)=C(/C=C\c3scnc3C)CS[C@H]12)c1csc(N)n1 [Cefditorin pivoxil],> 50
11,CCCCCCCCCC(C)=O [2-Undecanone],> 90
12,CCCCCCCC1CCCC1=O (stereo not shown) [2-Heptylcyclopentanone],> 90
13,CN/C(=N\[N+](=O)[O-])NCc1cnc(Cl)s1 [Clothianidin],> 90
14,Cc1ncc([C@@H](CCCCCCc2ccc3c(n2)NCCC3)CC(=O)O)cn1 [PharmaGSID_47333],> 90
15,"CC1(C)C(=O)N(Cl)C(=O)N1Cl [1,3-Dichloro-5,5-dimethylhydantoin]",> 90
16,COC(=O)Nc1ccc(Cl)c(Cl)c1 [Swep],> 90
17,"O=C1OC(=O)c2cc(-c3ccc4c(c3)C(=O)OC4=O)ccc21 [5,5'-Bi-2-benzofuran-1,1',3,3'-tetrone]",> 90
18,"COC(Cc1ccccc1)OC [(2,2-Dimethoxyethyl)benzene]",> 90
19,O=C1CCCCCCCCCCCCCCCO1 [Oxacycloheptadecan-2-one],> 90
20,"CC(C)(O)CCC(C)(C)O [2,5-Dimethylhexane-2,5-diol]",> 90
21,CCn1c2ccccc2c2cc(N)ccc21 [3-Amino-9-ethylcarbazole hydrochloride],> 90

# Same assay, conditions: rat, gh3-tre-luc cells, AC50 (uM) modified / 1000, Tox21_110001=Tox21_112294; viability, 1 nM T3 present, 24 h
row,Compound,CC50 at 24 h [µM]
1,C#CC(C)(O)CC (stereo not shown) [3-Methyl-1-pentyn-3-ol],> 50

# Same assay, conditions: rat, gh3-tre-luc cells, AC50 (uM) modified / 1000, Tox21_110001=Tox21_200657; viability, 1 nM T3 present, 24 h
row,Compound,CC50 at 24 h [µM]
1,O=C(O)CBr [Bromoacetic acid],> 90

# Same assay, conditions: rat, gh3-tre-luc cells, AC50 (uM) modified / 1000, Tox21_110001=Tox21_200991; viability, 1 nM T3 present, 24 h
row,Compound,CC50 at 24 h [µM]
1,N#C/C(N)=C(/N)C#N [Diaminomaleonitrile],> 90

# Same assay, conditions: rat, gh3-tre-luc cells, AC50 (uM) modified / 1000, Tox21_110001=Tox21_202811; viability, 1 nM T3 present, 24 h
row,Compound,CC50 at 24 h [µM]
1,"N#CNC#N [Cyanamide,cyano-,sodium salt]",> 90

# Same assay, conditions: rat, gh3-tre-luc cells, AC50 (uM) modified / 1000, Tox21_110001=Tox21_300606; viability, 1 nM T3 present, 24 h
row,Compound,CC50 at 24 h [µM]
1,O=C(O)C(F)(F)C(F)(F)C(F)(F)C(F)(F)C(F)(F)C(F)(F)C(F)(F)C(F)(F)C(F)(F)C(F)(F)F [Perfluoroundecanoic acid],> 90
